Data set [1] deals with edema (carrageenin, hind paw). The data set can be described thus: Anti-inflammatory activity: carrageenin hind paw edema in rats, oral administration. To be noted: for inhibition in vivo at 25 mg/kg / inhibition in vivo at 100 mg/kg / ED40 / inhibition in vivo at 1 mg/kg / inhibition in vivo at 5 mg/kg / inhibition in vivo at 10 mg/kg / inhibition in vivo at 20 mg/kg / inhibition in vivo at 50 mg/kg: Rattus norvegicus; for inhibition in vivo at 25 mg/kg: 25 mg/kg oral; for inhibition in vivo at 25 mg/kg / inhibition in vivo at 100 mg/kg / inhibition in vivo at 1 mg/kg / inhibition in vivo at 5 mg/kg / inhibition in vivo at 10 mg/kg / inhibition in vivo at 20 mg/kg / inhibition in vivo at 50 mg/kg: read-out: Percent edema inhibition; for inhibition in vivo at 100 mg/kg: 100 mg/kg oral; for ED40: dose causing 40% inhibition, dose-response line, read-out: ED40 value; for ED40 / anti-inflammatory activity (in words): oral; for anti-inflammatory activity (in words): carrageenin edema, rat; for inhibition in vivo at 1 mg/kg: 1 mg/kg oral; for inhibition in vivo at 5 mg/kg: 5 mg/kg oral; for inhibition in vivo at 10 mg/kg: 10 mg/kg oral; for inhibition in vivo at 20 mg/kg: 20 mg/kg oral; for inhibition in vivo at 50 mg/kg: 50 mg/kg oral. It is filed as in vivo, male Donryu rats. Here is the method:
(§1) The anti-inflammatory activity, analgesic activity and ulcerogenic activity of the novel dibenzo[a,d]cycloheptene derivatives of this invention were tested by the following methods.
Each of test compounds was orally administered to groups of male Donryu rats weighing 130 to 150 g (8 to 10 rats per group), and one hour later, 0.1 ml of a 1% carrageenin solution was injected subcutaneously into the hind paw of each rat. After injection of carrageenin, the volume of the paw was measured at predetermined periods, and the percent inhibition against a control group was calculated.
A general note: The carrageenan paw model is a standard test of acute inflammation.

Another data set relates to gastric wall. The data set can be described thus: in vivo. Particulars: rat, in vivo, po. Here is the method: as §1
(§2) Sixteen hours later, the rats were sacrificed under ether anesthesia.
(§3) *Calculated by the Adami's method.
(§4) **Calculated by the LitchfieldWilcoxon's method. The parenthesized values
(§5) show 95% confidence limits.

Data set [2] relates to writhing syndromes (acetic acid). In words: Analgesic activity: acetic acid writhing in mice. It is filed as in vivo, male ICR mice. The protocol:
as §1
Using male ICR mice weighing 25 to 30 g (10 mice per group), there was measured the number of writhing syndromes induced when a 1% solution of acetic acid was intraperitoneally injected at a dose of 10 ml/kg. The percent inhibition against a control group was calculated.

A short description of another data set: in vivo. Particulars: rat, in vivo, po. Here is the method:
as §1, §2, §3, §4, §5

Results on nine molecules are retold here after patent US4410716A, “Dibenzo[a,d]cycloheptene derivatives and process for production thereof” (Toa Eiyo Kagaku Kogyo Co. Ltd., priority 1979, dated 1983).

Each structure is given as a SMILES string. “Also recorded” adds a separate entry of the source. Read-outs that look alike come from different tables or passages of the source.

Take `O=C(O)Cc1ccc2c(c1)Cc1ccccc1C(=O)C2` [If, 10,11-dihydro-10-oxo-5H-dibenzo[a,d]cycloheptene-3-acetic acid]: the inhibition in vivo at 25 mg/kg in data set [1] (1 hour after carrageenin) is -22.6%; in data set [1] (2 hours after carrageenin), -16.8%; in data set [1] (3 hours after carrageenin) it was -12.3%; in data set [1] (4 hours after carrageenin) it was -8.7%. Further, the inhibition in vivo at 100 mg/kg in data set [1] (1 hour after carrageenin) was -23.5%; in data set [1] (2 hours after carrageenin) it was -21.4%; in data set [1] (3 hours after carrageenin) it was -9.1%; in data set [1] (4 hours after carrageenin) it was -5.5%.
Consider `O=C(O)Cc1ccc2c(c1)Cc1ccccc1CC2=O` [Ic, 10,11-dihydro-11-oxo-5H-dibenzo[a,d]cycloheptene-3-acetic acid], for which the inhibition in vivo at 25 mg/kg in data set [1] (1 hour after carrageenin) stood at 32.8%; in data set [1] (2 hours after carrageenin) it was 29.4%; in data set [1] (3 hours after carrageenin), 25.5%; in data set [1] (4 hours after carrageenin), 24%. For the same molecule, the inhibition in vivo at 100 mg/kg in data set [1] (1 hour after carrageenin) is 51.4%; in data set [1] (2 hours after carrageenin) it was 44.7%; in data set [1] (3 hours after carrageenin), 40.7%; in data set [1] (4 hours after carrageenin), 39.3%. In data set [1] (3 hours after carrageenin), the ED40 was 94 mg/kg. The “anti-inflammatory activity (in words)” value in data set [1] is recorded as “excellent anti-inflammatory activity; also recorded: evidently show anti-inflammatory activity although their activity is weaker than that of indomethacin”.
For `O=C(O)Cc1ccc2c(c1)CC(=O)c1cc(Cl)ccc1C2` [Ie, 8-chloro-10,11-dihydro-10-oxo-5H-dibenzo[a,d]cycloheptene-2-acetic acid], the inhibition in vivo at 25 mg/kg turned out to be 4.5% in data set [1] (1 hour after carrageenin), 8.6% in data set [1] (2 hours after carrageenin), 3% in data set [1] (3 hours after carrageenin) and 2.3% in data set [1] (4 hours after carrageenin). Besides, the inhibition in vivo at 100 mg/kg in data set [1] (1 hour after carrageenin) is -0.7%; in data set [1] (2 hours after carrageenin), 1.3%; in data set [1] (3 hours after carrageenin), -4.2%; in data set [1] (4 hours after carrageenin), -1.8%.
With `O=C(O)Cc1ccc2c(c1)C(=O)Cc1ccccc1C2` [Ia, 10,11-dihydro-11-oxo-5H-dibenzo[a,d]cycloheptene-2-acetic acid], the inhibition in vivo at 25 mg/kg came out at 28.2% in data set [1] (1 hour after carrageenin), 41.8% in data set [1] (2 hours after carrageenin), 44.5% in data set [1] (3 hours after carrageenin) and 41% in data set [1] (4 hours after carrageenin). Further, the inhibition in vivo at 100 mg/kg worked out at 33% in data set [1] (1 hour after carrageenin), 50% in data set [1] (2 hours after carrageenin), 53.7% in data set [1] (3 hours after carrageenin) and 52.2% in data set [1] (4 hours after carrageenin). Further, in data set [1] (3 hours after carrageenin), the ED40 was 13 mg/kg. Further, in data set [1], the “anti-inflammatory activity (in words)” value is listed as “excellent anti-inflammatory activity; also recorded: evidently show anti-inflammatory activity although their activity is weaker than that of indomethacin”. Besides, in the data set with gastric wall, the “ulcerogenic activity (in words)” value is “much weaker than that of indomethacin”.
In the case of `O=C(O)Cc1ccc2c(c1)CC(=O)c1ccccc1C2` [Id, 10,11-dihydro-10-oxo-5H-dibenzo[a,d]cycloheptene-2-acetic acid], the inhibition in vivo at 25 mg/kg was determined as 36% in data set [1] (1 hour after carrageenin), 36% in data set [1] (2 hours after carrageenin), 21.4% in data set [1] (3 hours after carrageenin) and 18.4% in data set [1] (4 hours after carrageenin). Moreover, the inhibition in vivo at 100 mg/kg in data set [1] (1 hour after carrageenin) amounted to 44.6%; in data set [1] (2 hours after carrageenin), 39%; in data set [1] (3 hours after carrageenin) it was 28.1%; in data set [1] (4 hours after carrageenin) it was 21.4%.
Take `CC(C(=O)O)c1ccc2c(c1)C(=O)Cc1ccccc1C2` (stereo not drawn) [compound Ii, 2-(10,11-dihydro-11-oxo-5H-dibenzo[a,d]cyclohepten-2-yl)propionic acid]: in data set [1] (1 hour after carrageenin), the inhibition in vivo at 1 mg/kg is 34.4%, the inhibition in vivo at 5 mg/kg stood at 35.8% and the inhibition in vivo at 10 mg/kg stood at 50%. Moreover, in data set [1] (2 hours after carrageenin), the inhibition in vivo at 1 mg/kg turned out to be 30.6%, the inhibition in vivo at 5 mg/kg came out at 54% and the inhibition in vivo at 10 mg/kg came out at 55%. In data set [1] (3 hours after carrageenin), the inhibition in vivo at 1 mg/kg stood at 32.4%, the inhibition in vivo at 5 mg/kg is 51.7%, the inhibition in vivo at 10 mg/kg was found to be 54.6% and the ED40 came to 1.9 mg/kg. In data set [1] (4 hours after carrageenin), the inhibition in vivo at 1 mg/kg was 32.4%, the inhibition in vivo at 5 mg/kg was determined as 50.9% and the inhibition in vivo at 10 mg/kg is 54.6%. Besides, the “anti-inflammatory activity (in words)” value in data set [1] is reported as “excellent anti-inflammatory activity; also recorded: stronger than that of indomethacin; also recorded: very potent anti-inflammatory activity”. In data set [2] (10.0 mg/kg), the “Inhibition (writhing)” value worked out at 14.0% and the “Number of writhing syndromes (Mean ± SE)” value stood at 19.7 ± 1.77. For the same molecule, in data set [2] (20.0 mg/kg), the “Inhibition (writhing)” value worked out at 33.6% and the “Number of writhing syndromes (Mean ± SE)” value amounted to 15.2 ± 1.28. Besides, in data set [2] (40.0 mg/kg), the “Inhibition (writhing)” value came to 45.4% and the “Number of writhing syndromes (Mean ± SE)” value was determined as 12.5 ± 1.65. Besides, in data set [2] (80.0 mg/kg), the “Inhibition (writhing)” value was 57.6% and the “Number of writhing syndromes (Mean ± SE)” value was 9.7 ± 1.93. The ED50 (in general, the midpoint of the dose-response relation) in data set [2] (Mus musculus, po, dose causing 50% inhibition of writhing, dose-response line, read-out: ED50 value) was 52 mg/kg. In addition, in data set [2] (writhing, mouse), the “ED50 value relative to that of indomethacin” value was “ten times”, the “analgesic activity (in words)” value is reported as “weak analgesic activity” and the “analgesic activity relative to indomethacin” value is “one-tenth of that of indomethacin”. Further, in the data set “in vivo”, the TD50 at 16 h was found to be 15 mg/kg and the selectivity ratio was determined as 7.9.
As to `O=C(O)Cc1ccc2c(c1)C(=O)Cc1cc(F)ccc1C2` [Ib, 8-fluoro-10,11-dihydro-11-oxo-5H-dibenzo[a,d]cycloheptene-2-acetic acid], the inhibition in vivo at 25 mg/kg in data set [1] (1 hour after carrageenin) came to 32.4%; in data set [1] (2 hours after carrageenin) it was 45.3%; in data set [1] (3 hours after carrageenin), 43.4%; in data set [1] (4 hours after carrageenin), 41.9%. Moreover, the inhibition in vivo at 100 mg/kg in data set [1] (1 hour after carrageenin) came out at 44.1%; in data set [1] (2 hours after carrageenin), 57.9%; in data set [1] (3 hours after carrageenin), 52.6%; in data set [1] (4 hours after carrageenin), 53%. Besides, the ED40 in data set [1] (3 hours after carrageenin) amounted to 15 mg/kg. The “anti-inflammatory activity (in words)” value in data set [1] is reported as “excellent anti-inflammatory activity; also recorded: evidently show anti-inflammatory activity although their activity is weaker than that of indomethacin”. The “ulcerogenic activity (in words)” value with gastric wall is listed as “much weaker than that of indomethacin”.
As to `COC1=Cc2ccccc2Cc2ccc(CC(=O)O)cc21` [Ig, 11-methoxy-5H-dibenzo[a,d]cycloheptene-2-acetic acid], the inhibition in vivo at 100 mg/kg in data set [1] (1 hour after carrageenin) amounted to 25.5%; in data set [1] (2 hours after carrageenin), 40.6%; in data set [1] (3 hours after carrageenin), 42.6%; in data set [1] (4 hours after carrageenin), 37.1%.
In the case of `COC1=Cc2ccccc2Cc2ccc(C(C)C(=O)O)cc21` (stereo not drawn) [Ih, 2-(11-methoxy-5H-dibenzo[a,d]cyclohepten-2-yl)propionic acid], in data set [1] (1 hour after carrageenin), the inhibition in vivo at 5 mg/kg stood at 18.4%, the inhibition in vivo at 20 mg/kg was found to be 28.1% and the inhibition in vivo at 50 mg/kg came out at 35.6%. For the same molecule, in data set [1] (2 hours after carrageenin), the inhibition in vivo at 5 mg/kg is 24.7%, the inhibition in vivo at 20 mg/kg was 22.9% and the inhibition in vivo at 50 mg/kg was 32.9%. Also, in data set [1] (3 hours after carrageenin), the inhibition in vivo at 5 mg/kg amounted to 12%, the inhibition in vivo at 20 mg/kg came out at 26.8%, the inhibition in vivo at 50 mg/kg amounted to 35.4% and the ED40 turned out to be 77 mg/kg. In data set [1] (4 hours after carrageenin), the inhibition in vivo at 5 mg/kg was determined as 12.6%, the inhibition in vivo at 20 mg/kg came to 26.8% and the inhibition in vivo at 50 mg/kg amounted to 35.7%. Also, in data set [1], the “anti-inflammatory activity (in words)” value is given as “excellent anti-inflammatory activity; also recorded: evidently show anti-inflammatory activity although their activity is weaker than that of indomethacin”.
